Earlier results as cited in patent US6706892B1, “Pulmonary delivery for bioconjugation” (priority 1999, dated 2004).

How the values were obtained:
[1] = in vivo
breast cancer = conditions: in vivo

CC1=NS(=O)(=O)c2cc(Cl)ccc2N1 [Diazoxide]
half-life [1]: about 24 hours

O=C(c1ccc(OCCN2CCCCC2)cc1)c1c(-c2ccc(O)cc2)sc2cc(O)ccc12 [Raloxifene]
cut in the risk of breast cancer (breast cancer): ≤ 60%
